According to BindingDB's records for patent US20240148821 (Chugai Seiyaku Kabushiki Kaisha, 2024):
Numbered stars: 1 amine (or outer) side, 2 acyl side, 3 side chain; on linkers, the order of the positions; unused ones are H or OH. Bridge positions count the residues as written; N and C are the ends. Square brackets hold non-standard residues; d marks the D form. Peptide text beside a SMILES is read from it. * marks the point of attachment. hPhe(3-F,4-CF3) = N[C@@H](CCc1ccc(C(F)(F)F)c(F)c1)C(=O)O; oXylylene = c1ccc(C[*:2])c(C[*:1])c1; NMeCha = CN[C@@H](CC1CCCCC1)C(=O)O; Hyp = O=C(O)[C@@H]1C[C@@H](O)CN1; NMeD = CN[C@@H](CC(=O)O)C(=O)O; NMeL = CN[C@@H](CC(C)C)C(=O)O; Piperidide = C1CCN(*)CC1; Ac5c = NC1(C(=O)O)CCCC1; X87 = Clc1ccccc1C*; Sar = CNCC(=O)O

biological target: GTPase KRas (G12D) and Son of Sevenless Homolog 1 (SOS) (Homo sapiens, UniProt P01116, G12D); assay: AlphaScreen Assay
Sequence (P01116 whole entry G12D): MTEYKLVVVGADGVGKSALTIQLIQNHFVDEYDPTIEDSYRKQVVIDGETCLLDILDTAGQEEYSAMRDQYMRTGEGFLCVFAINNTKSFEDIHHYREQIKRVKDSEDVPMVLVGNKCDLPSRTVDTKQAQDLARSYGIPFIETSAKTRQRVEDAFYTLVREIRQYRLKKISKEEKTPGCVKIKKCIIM
Sequence (Q07889 whole entry, further chain): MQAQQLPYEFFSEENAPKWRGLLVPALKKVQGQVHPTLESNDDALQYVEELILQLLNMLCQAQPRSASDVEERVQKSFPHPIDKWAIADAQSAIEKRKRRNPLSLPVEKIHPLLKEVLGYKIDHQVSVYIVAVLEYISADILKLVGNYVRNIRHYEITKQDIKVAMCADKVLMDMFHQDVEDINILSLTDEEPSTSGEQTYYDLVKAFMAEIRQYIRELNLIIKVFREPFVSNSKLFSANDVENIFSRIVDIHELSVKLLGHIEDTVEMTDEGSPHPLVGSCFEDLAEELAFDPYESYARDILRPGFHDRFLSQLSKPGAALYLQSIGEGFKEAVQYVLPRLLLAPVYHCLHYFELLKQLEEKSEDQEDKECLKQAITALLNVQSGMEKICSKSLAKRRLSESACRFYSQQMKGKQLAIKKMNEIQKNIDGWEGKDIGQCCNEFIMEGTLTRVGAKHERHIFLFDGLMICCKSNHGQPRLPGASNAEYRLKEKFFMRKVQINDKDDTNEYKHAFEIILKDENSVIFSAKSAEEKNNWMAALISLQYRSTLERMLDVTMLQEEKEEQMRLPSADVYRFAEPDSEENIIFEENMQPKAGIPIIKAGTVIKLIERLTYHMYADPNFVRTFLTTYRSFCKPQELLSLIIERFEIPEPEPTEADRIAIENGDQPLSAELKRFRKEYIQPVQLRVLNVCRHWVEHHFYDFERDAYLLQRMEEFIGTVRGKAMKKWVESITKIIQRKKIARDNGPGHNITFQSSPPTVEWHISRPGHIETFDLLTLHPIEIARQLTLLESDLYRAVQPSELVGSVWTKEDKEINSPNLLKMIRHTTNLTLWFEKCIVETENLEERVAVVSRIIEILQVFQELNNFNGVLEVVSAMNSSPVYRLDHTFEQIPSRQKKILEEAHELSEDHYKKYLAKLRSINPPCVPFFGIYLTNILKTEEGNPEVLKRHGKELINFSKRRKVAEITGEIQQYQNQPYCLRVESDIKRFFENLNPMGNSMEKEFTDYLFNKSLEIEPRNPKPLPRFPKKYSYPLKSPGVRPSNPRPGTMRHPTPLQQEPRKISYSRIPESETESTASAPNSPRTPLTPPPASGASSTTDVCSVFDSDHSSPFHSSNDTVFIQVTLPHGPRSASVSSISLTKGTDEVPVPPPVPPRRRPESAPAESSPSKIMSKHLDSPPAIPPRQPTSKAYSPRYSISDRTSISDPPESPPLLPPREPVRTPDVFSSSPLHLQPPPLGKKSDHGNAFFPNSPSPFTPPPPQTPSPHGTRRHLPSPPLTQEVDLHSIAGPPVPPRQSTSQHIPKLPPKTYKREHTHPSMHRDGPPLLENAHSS
Method: Protein-protein interaction inhibition (PPI) between Kras and SOS1 was measured by energy transfer from nickel-conjugated donor beads to streptavidin-conjugated acceptor beads using biotin-tagged human Kras expressed in E. coli and loaded with GDP after purification and His-tagged human SOS1 enzyme. This measurement utilizes the phenomenon in which donor beads are irradiated with light at 680 nm, such that energy is transferred to acceptor beads through singlet oxygen and light at 520-620 nm is detected from the acceptor beads.

IC50 [nM] | SMILES
8.6 | CC[C@H](C)[C@@H]1NC(=O)[C@H](CC(C)C)N(C)C(=O)C[C@@H](C(=O)N2CCCCC2)N(C)C(=O)[C@H](CC(C)C)N(C)C(=O)C2(CCCC2)NC(=O)[C@@H]2C[C@@H](OCc3ccccc3Cl)CN2C(=O)[C@H](CCc2ccc(C(F)(F)F)c(F)c2)NC(=O)CN(C)C(=O)[C@H](CC2CCCCC2)N(C)C(=O)CN(C)C(=O)CN(C)C1=O [US20240148821, Compound 2138] ([NMeL]I[Sar][Sar][NMeCha][Sar][hPhe(3-F,4-CF3)][Hyp](X87)[Ac5c][NMeL][NMeD]-Piperidide; lactam N-11)
3.2 | CCO[C@@H]1C[C@H]2C(=O)NC3(CCCC3)C(=O)N(C)[C@@H](CC(C)C)C(=O)N(C)[C@H](C(=O)N3CCCCC3)CC(=O)N(C)[C@@H](CC(C)C)C(=O)N[C@@H]([C@@H](C)CC)C(=O)N(C)CC(=O)N(C)CC(=O)N(C)[C@@H](CC3CCCCC3)C(=O)N(C)CC(=O)N[C@@H](CCc3ccc(C(F)(F)F)c(F)c3)C(=O)N2C1 [US20240148821, Compound 2118] ([NMeL]I[Sar][Sar][NMeCha][Sar][hPhe(3-F,4-CF3)][Hyp](Et)[Ac5c][NMeL][NMeD]-Piperidide; lactam N-11)
23 | CC[C@H](C)[C@@H]1NC(=O)[C@H](CC(C)C)N(C)C(=O)C[C@@H](C(=O)N2CCCCC2)N(C)C(=O)[C@H](CC(C)C)N(C)C(=O)C2(CCCC2)NC(=O)[C@@H]2C[C@@H](OCc3ccccc3C)CN2C(=O)[C@H](CCc2ccc(C(F)(F)F)c(F)c2)NC(=O)CN(C)C(=O)[C@H](CC2CCCCC2)N(C)C(=O)CN(C)C(=O)CN(C)C1=O [US20240148821, Compound 2139] ([NMeL]I[Sar][Sar][NMeCha][Sar][hPhe(3-F,4-CF3)][Hyp](oXylylene)[Ac5c][NMeL][NMeD]-Piperidide; lactam N-11)
